Earlier results, collected in patent US20260297123A1, “METHODS FOR THE SYNTHESIS OF NUCLEOSIDE ANALOGUES AND NUCLEOSIDES ANALOGUES DERIVED THEREFROM” (SIMON FRASER UNIVERSITY, priority 2023, published 2026).
Read-outs that look alike come from different tables or passages of the source.

Conditions: for pKa, H2O: values <0 and >14 extrapolated; for pKa, (DMSO) (second of several listed) / pKa, H2O (second of several listed): second value listed; for pKa, H2O (first of several listed) / pKa, (DMSO) (first of several listed): first value listed
[1] = DMSO (values in parentheses), values <0 and >35 extrapolated

CCOC(=O)CC(C)=O
pKa, (DMSO) [1]: (14.2)
pKa, H2O (H2O): 11

NS(=O)(=O)c1ccccc1 [PhSO2NH2]
pKa, (DMSO) [1]: (16.1)

N#CCS(=O)(=O)c1ccccc1 [drawing 107, X = CN]
pKa, (DMSO) [1]: (12.0)

OCl [HOCl]
pKa, H2O (H2O): 7.5

N#CCC(=O)N1CCCC1
pKa, (DMSO) [1]: (17.2)

CC(=O)CS(=O)(=O)c1ccccc1 [drawing 77, X = SO2Ph]
pKa, (DMSO) [1]: (15.1)

CC(=O)CC(C)=O [drawing 77, X = COCH3]
pKa, (DMSO) [1]: (13.3)
pKa, H2O (H2O): 9

C1=Cc2ccccc2C1
pKa, H2O (H2O): 20

O=C(O)c1cccc([N+](=O)[O-])c1 [drawing 16, X = m-O2NC6H4]
pKa, H2O (H2O): 2.45

N#CC[P+](c1ccccc1)(c1ccccc1)c1ccccc1 [Ph3P^+CH2CN]
pKa, (DMSO) [1]: (7.0)

O=[N+]([O-])c1ccc(O)cc1 [p-O2NC6H4OH]
pKa, (DMSO) [1]: (10.8)
pKa, H2O (H2O): 7.14

NNC(=O)c1ccccc1
pKa, (DMSO) [1]: (18.9)

CN(C)c1cccc2cccc(N(C)C)c12 [Proton Spong ?]
pKa, (DMSO) (second of several listed): 7.50
pKa, H2O (second of several listed) (H2O): 12.0

C=CC(=O)O [drawing 17, R = H]
pKa, H2O (H2O): 4.25

OB(O)O [B(OH)3]
pKa, H2O (H2O): 9.23

CC(C)O [i-PrOH]
pKa, H2O (H2O): 16.5

CC(=O)CC(=O)c1ccccc1 [drawing 82, X = COCH3]
pKa, (DMSO) [1]: (12.7)

O=C1CCCN1
pKa, H2O (H2O): 12

O=C(C[Se]c1ccccc1)c1ccccc1 [drawing 82, X = SePh]
pKa, (DMSO) [1]: (18.6)

CCOC(=O)C[N+](C)(C)C
pKa, (DMSO) [1]: (20.0)

OC(C(F)(F)F)C(F)(F)F [(CF3)2CHOH]
pKa, (DMSO) [1]: (17.9)

CS(N)(=O)=O [MeSO2NH2]
pKa, (DMSO) [1]: (17.5)

CO [MeOH]
pKa, H2O (H2O): 15.54

O=C(CC(=O)c1ccccc1)c1ccccc1 [drawing 82, X = COPh]
pKa, (DMSO) [1]: (13.3)

c1ccc(Nc2ccccc2)cc1 [Ph2N^+H2]
pKa, H2O (H2O): 0.78

C[N+](=O)[O-] [RNO2, R = CH3]
pKa, (DMSO) [1]: (17.2)

O=C1NC(=O)c2ccccc21
pKa, H2O (H2O): 6.30

COO [MeOOH]
pKa, H2O (H2O): 11.5

CC(C)(C)O [t-BuOH]
pKa, H2O (H2O): 17

CC(=O)C(C)(C)C
pKa, (DMSO) (dmso): (27.7)

O=C(CSc1ccccc1)c1ccccc1 [drawing 82, X = SPh]
pKa, (DMSO) [1]: (16.9)

N#CS [HSCN]
pKa, H2O (H2O): 4.00

O=C(Cc1ccccc1)c1ccccc1 [drawing 82, X = Ph]
pKa, (DMSO) [1]: (17.7)

CC[N+](=O)[O-] [RNO2, R = CH2Me]
pKa, (DMSO) [1]: (16.7)

O=C(O)O [drawing 16, X = HO]
pKa, H2O (first of several listed) (H2O): 3.6

O=[N+]([O-])CCc1ccccc1 [RNO2, R = CH2Bn]
pKa, (DMSO) [1]: (16.2)

C1CN2CCN1CC2 [DABCO]
pKa, (DMSO) (first of several listed): 2.97
pKa, (DMSO) (second of several listed): 8.93
pKa, H2O (first of several listed) (H2O): 2.97
pKa, H2O (second of several listed) (H2O): 8.82

CC(=O)OO [CH3CO3H]
pKa, H2O (H2O): 8.2

C[N+](C)(C)CC(=O)c1ccccc1 [drawing 82, X = N^+Me3]
pKa, (DMSO) [1]: (14.6)

CN(C)C(=N)N(C)C
pKa, (DMSO) [1]: (13.5)

CN(C)c1ccncc1 [DMAP]
pKa, H2O (H2O): 9.2

Oc1ccc2ccccc2c1 [2-napthol]
pKa, (DMSO) [1]: (17.1)

N#CC1SCCCS1 [drawing 97, X = CN]
pKa, (DMSO) [1]: (19.1)

Nc1ccc2ccccc2c1 [2-naphthal-N^+H3]
pKa, H2O (H2O): 4.16

CN(C)c1ccccc1 [PhN^+(Me)2H]
pKa, (DMSO) [1]: (2.50)
pKa, H2O (H2O): 5.20

NNS(=O)(=O)c1ccccc1 [PhSO2NHNH2]
pKa, (DMSO) [1]: (17.2)

O=C(C[N+](=O)[O-])c1ccccc1 [drawing 82, X = NO2]
pKa, (DMSO) [1]: (7.7)

N#CCC(=O)c1ccccc1 [drawing 82, X = CN]
pKa, (DMSO) [1]: (10.2)

O=C(O)C(Cl)(Cl)Cl [drawing 16, X = CCl3]
pKa, H2O (H2O): 0.65

C1CCC2=NCCCN2CC1 [DBU]
pKa, (DMSO) (dmso): (12) (estimate)

O=C(NO)c1ccccc1
pKa, (DMSO) [1]: (13.7)
pKa, H2O (NH) (H2O, NH): 8.88 (NH)

O=[N+]([O-])Cc1ccccc1 [RNO2, R = CH2Ph]
pKa, (DMSO) [1]: (12.2)

CCC(=O)Nc1ccccc1
pKa, (DMSO) (dmso): (21.6)

O=[N+]([O-])O [HNO3]
pKa, H2O (H2O): −1.3

OCC(F)(F)F [CF3CH2OH]
pKa, H2O (H2O): 12.5

N#CN [NCNH2]
pKa, (DMSO) [1]: (16.9)

O=C(C[P+](c1ccccc1)(c1ccccc1)c1ccccc1)c1ccccc1 [Ph3P^+CH2COPh]
pKa, (DMSO) [1]: (6.2)

O=NO [HNO2]
pKa, H2O (H2O): 3.29

O=C(O)c1ccc([N+](=O)[O-])cc1 [drawing 16, X = p-O2NC6H4]
pKa, H2O (H2O): 3.44

ON=C(c1ccccc1)c1ccccc1
pKa, H2O (H2O): 11.3

OO [HOOH]
pKa, H2O (H2O): 11.6

O=C(O)C(F)(F)F [drawing 16, X = CF3]
pKa, H2O (H2O): −0.25

O=C(O)c1cccc(Cl)c1 [drawing 16, X = m-ClC6H4]
pKa, H2O (H2O): 3.83

Br [HBt]
pKa, (DMSO) [1]: (0.9)

CC(=O)NC(C)=O [Ac2NH]
pKa, (DMSO) [1]: (17.9)

CS(=O)(=O)Nc1ccccc1 [MeSO2NHPh]
pKa, (DMSO) [1]: (12.9)

O=[N+]([O-])c1cccc(O)c1 [m-C2NC6H4OH]
pKa, H2O (H2O): 8.35

C[N+](C)(C)CS(=O)(=O)c1ccccc1 [drawing 107, X = N^+Me3]
pKa, (DMSO) [1]: (19.4)

O=S(=O)(CSc1ccccc1)C(F)(F)F [PhSCH2X, X = SO2CF3]
pKa, (DMSO) [1]: (11.0)

[O]=[Cr](=[O])([OH])[OH] [H2CrO4]
pKa, H2O (first of several listed) (H2O): −0.98
pKa, H2O (second of several listed) (H2O): 6.50

O=C(CS(=O)(=O)c1ccccc1)c1ccccc1 [drawing 82, X = SO2Ph]
pKa, (DMSO) [1]: (11.4)

CCC(=O)CC
pKa, H2O (H2O): 19-20

C[N+](C)(C)c1ccccc1C(=O)O [drawing 16, X = o-(CH3)3N^+C6H4]
pKa, H2O (H2O): 1.37

NCCN
pKa, H2O (first of several listed) (H2O): 6.90
pKa, H2O (second of several listed) (H2O): 9.95

O=[N+]([O-])CS(=O)(=O)c1ccccc1 [drawing 107, X = NO2]
pKa, (DMSO) [1]: (7.1)

F [HF]
pKa, (DMSO) [1]: (15)
pKa, H2O (H2O): 3.17

Oc1ccccn1
pKa, (DMSO) [1]: (17.0)

C[S+](Cc1ccccc1)c1ccccc1 (centres unmarked)
pKa, (DMSO) (first of several listed): 16.2
pKa, (DMSO) (second of several listed): 16.3

CN(O)C(=O)c1ccccc1
pKa, (DMSO) [1]: (16.5)

CC(=O)CS(=O)(=O)c1ccccc1 [drawing 107, X = COMe]
pKa, (DMSO) [1]: (12.5)

O=S(=O)(O)C(F)(F)F [CF3SO3H]
pKa, (DMSO) [1]: (0.3)

NS(=O)(=O)C(F)(F)F [CF3SO2NH2]
pKa, (DMSO) [1]: (9.7)

CCP(CC)CC [Et3P^+H]
pKa, H2O (H2O): 9.1

NC(=O)C(F)(F)F [drawing 41, R = CF3]
pKa, (DMSO) [1]: (17.2)

C[N+](C)(C)c1ccc(C(=O)O)cc1 [drawing 16, X = p-(CH3)3N^+C6H4]
pKa, H2O (H2O): 3.43

O=S(O)O [H2SO3]
pKa, H2O (first of several listed) (H2O): 1.9
pKa, H2O (second of several listed) (H2O): 7.21

CC(C)[N+](=O)[O-] [RNO2, R = CHMe2]
pKa, (DMSO) [1]: (16.9)

O=C(O)C[N+](=O)[O-] [drawing 16, X = CH2NO2]
pKa, H2O (H2O): 1.68

COc1ccc(O)cc1 [p-OMeC6H4OH]
pKa, (DMSO) [1]: (19.1)
pKa, H2O (H2O): 10.20

CS(=O)(=O)C(F)(F)F
pKa, (DMSO) [1]: (18.8)

O=[N+]([O-])CSc1ccccc1 [PhSCH2X, X = NO2]
pKa, (DMSO) [1]: (11.8)

CC(=O)Cc1ccccc1 [drawing 77, X = Ph]
pKa, (DMSO) [1]: (19.8)

CC(=O)CSc1ccccc1 [drawing 77, X = SPh]
pKa, (DMSO) [1]: (18.7)

CCCCS [BuSH]
pKa, (DMSO) [1]: (17.0)
pKa, H2O (H2O): 10-11
